Source: the C3SDB collision cross section collection

conditions: [M+HCOO]-; instrument: DT; single field, calibrated with Agilent tune mix (Agilent)

| collision cross section (N2) | Structure (SMILES) |
| --- | --- |
| 235 Å² | CCCCCCCCCCCCCCCC(=O)OCC(O)COP(=O)([O-])OCC[N+](C)(C)C (stereo unspecified) [LPC(16:0)] |
| 288.4 Å² | CCCCC/C=C\C/C=C\C/C=C\CCCCC(=O)OC[C@H](COP(=O)([O-])OCC[N+](C)(C)C)OC(=O)CCCCCCC/C=C\CCCCCCCC [PC(36:4)] |

same assay, conditions: [M+H]+; instrument: DT; single field, calibrated with Agilent tune mix (Agilent)

| collision cross section (N2) | Structure (SMILES) |
| --- | --- |
| 229.8 Å² | CCCCCCCCCCCCCCCC(=O)OCC(O)COP(=O)([O-])OCC[N+](C)(C)C (stereo unspecified) [LPC(16:0)] |
| 280.1 Å² | CCCCC/C=C\C/C=C\C/C=C\CCCCCCC(=O)O[C@H](COC(=O)CCCCCCC/C=C\C/C=C\CCCCC)COP(=O)(O)OCCN [PE(38:5)] |
| 301.6 Å² | CCCCCCCCCC/C=C\CCCCCCCCCC(=O)O[C@H](COC(=O)CCCCCCCCCCCCC)COP(=O)(O)O[C@H]1C(O)C(O)C(O)[C@@H](O)C1O (stereo partly specified) [PI(36:1)] |
| 273.2 Å² | CCCC/C=C\CCCCCCCC(=O)O[C@H](CO/C=C\CCCCCCCCCCCCCCCCCC)COP(=O)(O)OCCN [PE(p34:1)] |

same assay, conditions: [M+NH4]+; instrument: DT; single field, calibrated with Agilent tune mix (Agilent)

| collision cross section (N2) | Structure (SMILES) |
| --- | --- |
| 302.2 Å² | CCCCCCCCCC/C=C\CCCCCCCCCC(=O)O[C@H](COC(=O)CCCCCCCCCCCCC)COP(=O)(O)O[C@H]1C(O)C(O)C(O)[C@@H](O)C1O (stereo partly specified) [PI(36:1)] |

same assay, conditions: [M+Na]+; instrument: DT; single field, calibrated with Agilent tune mix (Agilent)

| collision cross section (N2) | Structure (SMILES) |
| --- | --- |
| 299 Å² | CCCCCCCCCC/C=C\CCCCCCCCCC(=O)O[C@H](COC(=O)CCCCCCCCCCCCC)COP(=O)(O)O[C@H]1C(O)C(O)C(O)[C@@H](O)C1O (stereo partly specified) [PI(36:1)] |
| 276.9 Å² | CCCC/C=C\CCCCCCCC(=O)O[C@H](CO/C=C\CCCCCCCCCCCCCCCCCC)COP(=O)(O)OCCN [PE(p34:1)] |

same assay, conditions: [M-H]-; instrument: DT; single field, calibrated with Agilent tune mix (Agilent)

| collision cross section (N2) | Structure (SMILES) |
| --- | --- |
| 271.2 Å² | CCCCC/C=C\C/C=C\C/C=C\CCCCCCC(=O)O[C@H](COC(=O)CCCCCCC/C=C\C/C=C\CCCCC)COP(=O)(O)OCCN [PE(38:5)] |
| 290.5 Å² | CCCCCCCCCC/C=C\CCCCCCCCCC(=O)O[C@H](COC(=O)CCCCCCCCCCCCC)COP(=O)(O)O[C@H]1C(O)C(O)C(O)[C@@H](O)C1O (stereo partly specified) [PI(36:1)] |
| 262.2 Å² | CCCC/C=C\CCCCCCCC(=O)O[C@H](CO/C=C\CCCCCCCCCCCCCCCCCC)COP(=O)(O)OCCN [PE(p34:1)] |

conditions: [M+CH3COO]-; instrument: TW; calibrated with phosphatidylcholines (ESI+) and phosphatidylethanolamines (ESI-)

| collision cross section (N2) | Structure (SMILES) |
| --- | --- |
| 290.8 Å² | CCCCC/C=C\C/C=C\C/C=C\CCCCC(=O)OC[C@H](COP(=O)([O-])OCC[N+](C)(C)C)OC(=O)CCCCCCC/C=C\CCCCCCCC [PC(36:4)] |

same assay, conditions: [M+H]+; instrument: TW; calibrated with phosphatidylcholines (ESI+) and phosphatidylethanolamines (ESI-)

| collision cross section (N2) | Structure (SMILES) |
| --- | --- |
| 288.2 Å² | CC/C=C\C/C=C\C/C=C\C/C=C\C/C=C\CCCC(=O)OC[C@H](COP(=O)(O)OCCN)OC(=O)CCCCC/C=C\C/C=C\C/C=C\C/C=C\CCCCC [PE(42:9)] |
| 228.5 Å² | CCCCCCCCCCCCCCCC(=O)OCC(O)COP(=O)([O-])OCC[N+](C)(C)C (stereo unspecified) [LPC(16:0)] |
| 285 Å² | CC/C=C\C/C=C\C/C=C\C/C=C\C/C=C\CCCCCC(=O)O[C@H](COC(=O)CCC/C=C\C/C=C\C/C=C\C/C=C\C/C=C\CC)COP(=O)(O)OCCN [PE(42:10)] |
| 276 Å² | CCCCC/C=C\C/C=C\C/C=C\CCCCCCC(=O)O[C@H](COC(=O)CCCCCCC/C=C\C/C=C\CCCCC)COP(=O)(O)OCCN [PE(38:5)] |
| 286 Å² | CCCCC/C=C\C/C=C\C/C=C\CCCCC(=O)OC[C@H](COP(=O)([O-])OCC[N+](C)(C)C)OC(=O)CCCCCCC/C=C\CCCCCCCC [PC(36:4)] |

same assay, conditions: [M+Na]+; instrument: TW; calibrated with phosphatidylcholines (ESI+) and phosphatidylethanolamines (ESI-)

| collision cross section (N2) | Structure (SMILES) |
| --- | --- |
| 297.2 Å² | CCCCCCCCCC/C=C\CCCCCCCCCC(=O)O[C@H](COC(=O)CCCCCCCCCCCCC)COP(=O)(O)O[C@H]1C(O)C(O)C(O)[C@@H](O)C1O (stereo partly specified) [PI(36:1)] |

same assay, conditions: [M-H]-; instrument: TW; calibrated with phosphatidylcholines (ESI+) and phosphatidylethanolamines (ESI-)

| collision cross section (N2) | Structure (SMILES) |
| --- | --- |
| 269.5 Å² | CCCCC/C=C\C/C=C\C/C=C\CCCCCCC(=O)O[C@H](COC(=O)CCCCCCC/C=C\C/C=C\CCCCC)COP(=O)(O)OCCN [PE(38:5)] |
| 289.6 Å² | CCCCCCCCCC/C=C\CCCCCCCCCC(=O)O[C@H](COC(=O)CCCCCCCCCCCCC)COP(=O)(O)O[C@H]1C(O)C(O)C(O)[C@@H](O)C1O (stereo partly specified) [PI(36:1)] |
| 262.1 Å² | CCCC/C=C\CCCCCCCC(=O)O[C@H](CO/C=C\CCCCCCCCCCCCCCCCCC)COP(=O)(O)OCCN [PE(p34:1)] |

conditions: [M+H]+; instrument: DT; stepped-field

| collision cross section (N2) | Structure (SMILES) |
| --- | --- |
| 233.3 Å² | CCCCCCCCCCCCCCCC(=O)OCC(O)COP(=O)([O-])OCC[N+](C)(C)C (stereo unspecified) [LPC(16:0)] |

conditions: M+NH4]+; instrument: TW; calibrated with phosphatidylcholines (ESI+) and phosphatidylethanolamines (ESI-)

| collision cross section (N2) | Structure (SMILES) |
| --- | --- |
| 315 Å² | CCCCCCCCCCCCCCC=CCC(=O)O[C@H](COC(=O)CC=CCCCCCCCCCCCCCCC)CO[C@@H]1O[C@H](CO[C@H]2O[C@H](CO)[C@H](O)C(O)C2O)[C@H](O)C(O)C1O (stereo partly specified) [DGDG(35:2)] |

same assay, conditions: [M+CH3COO]-; instrument: TW; calibrated with phosphatidylcholines (ESI+) and phosphatidylethanolamines (ESI-)

| collision cross section (N2) | Structure (SMILES) |
| --- | --- |
| 305.8 Å² | CCCCCCCC=CCC=CCC=CCC(=O)OC[C@H](CO[C@@H]1O[C@H](CO[C@H]2O[C@H](CO)[C@H](O)C(O)C2O)[C@H](O)C(O)C1O)OC(=O)CC=CCC=CCC=CCCCCCCC (stereo partly specified) [DGDG(16:3/18:3)] |
| 312.7 Å² | CCCCCCCCCCCCCC=CCC(=O)OC[C@H](CO[C@@H]1O[C@H](CO[C@H]2O[C@H](CO)[C@H](O)C(O)C2O)[C@H](O)C(O)C1O)OC(=O)CC=CCCCCCCCCCCCCC (stereo partly specified) [DGDG(16:0/18:2)] |
| 313.7 Å² | CCCCCCCCC=CCC=CCC=CCC(=O)OC[C@H](CO[C@@H]1O[C@H](CO[C@H]2O[C@H](CO)[C@H](O)C(O)C2O)[C@H](O)C(O)C1O)OC(=O)CC=CCC=CCC=CCCCCCCCC (stereo partly specified) [DGDG(18:3/18:3)] |

same assay, conditions: [M+Cl]-; instrument: TW; calibrated with phosphatidylcholines (ESI+) and phosphatidylethanolamines (ESI-)

| collision cross section (N2) | Structure (SMILES) |
| --- | --- |
| 303.2 Å² | CCCCCCCCCCC=CCC=CCC(=O)OC[C@H](CO[C@@H]1O[C@H](CO[C@H]2O[C@H](CO)[C@H](O)C(O)C2O)[C@H](O)C(O)C1O)OC(=O)CC=CCC=CCCCCCCCCCC (stereo partly specified) [DGDG(16:1/18:3)] |
| 299.9 Å² | CCCCCCCC=CCC=CCC=CCC(=O)OC[C@H](CO[C@@H]1O[C@H](CO[C@H]2O[C@H](CO)[C@H](O)C(O)C2O)[C@H](O)C(O)C1O)OC(=O)CC=CCC=CCC=CCCCCCCC (stereo partly specified) [DGDG(16:3/18:3)] |
| 304.9 Å² | CCCCCCCCCCCCCC=CCC(=O)OC[C@H](CO[C@@H]1O[C@H](CO[C@H]2O[C@H](CO)[C@H](O)C(O)C2O)[C@H](O)C(O)C1O)OC(=O)CC=CCCCCCCCCCCCCC (stereo partly specified) [DGDG(16:0/18:2)] |
| 305.9 Å² | CCCCCCCCC=CCC=CCC=CCC(=O)OC[C@H](CO[C@@H]1O[C@H](CO[C@H]2O[C@H](CO)[C@H](O)C(O)C2O)[C@H](O)C(O)C1O)OC(=O)CC=CCC=CCC=CCCCCCCCC (stereo partly specified) [DGDG(18:3/18:3)] |

same assay, conditions: [M+H]+; instrument: TW; calibrated with phosphatidylcholines (ESI+) and phosphatidylethanolamines (ESI-)

| collision cross section (N2) | Structure (SMILES) |
| --- | --- |
| 290.4 Å² | CCCCCCCCCCCCCCC(=O)OCC(COP(=O)([O-])OCC(O)COC(=O)C(N)CCCC[NH3+])OC(=O)CCCCCCCCCCCCCC (stereo unspecified) [LysPG(30:0)] |
| 302.5 Å² | CCCCCCCCCCCCCCCCCCC(=O)OC(COC(=O)CCCCCCCCCCCCCC)COP(=O)([O-])OCC(O)COC(=O)C(N)CCCC[NH3+] (stereo unspecified) [LysPG(34:0)] |
| 297 Å² | CCCCCCCCCCCCCCCC(=O)OCC(COP(=O)([O-])OCC(O)COC(=O)C(N)CCCC[NH3+])OC(=O)CCCCCCCCCCCCCCC (stereo unspecified) [LysPG(16:0/16:0)] |
| 284.7 Å² | CCCCCCCCCCCCCCC(=O)OCC(COP(=O)([O-])OCC(O)COC(=O)C(N)CCCC[NH3+])OC(=O)CCCCCCCCCCCC (stereo unspecified) [LysPG(28:0)] |
| 303.5 Å² | CCCCCC/C=C\CCCCCCCCCC(=O)OCC(COP(=O)([O-])OCC(O)COC(=O)C(N)CCCC[NH3+])OC(=O)CCCCCCCCCCCCCCCC (stereo unspecified) [LysPG(35:1)] |
| 290.8 Å² | CCCCCC/C=C\CCCCCCCC(=O)OCC(COP(=O)([O-])OCC(O)COC(=O)C(N)CCCC[NH3+])OC(=O)CCCCCCC/C=C\CCCCCC (stereo unspecified) [LysPG(32:2)] |
| 291.7 Å² | CCCCCC/C=C\CCCCCCCCCC(=O)OC(COC(=O)CCCCCCCCCCCCCCC)COP(=O)([O-])OCC(O)COC(=O)C(C)[NH3+] (stereo unspecified) [AlaPG(34:1)] |
| 293.5 Å² | CCCCCC/C=C/CCCCCCCC(=O)OCC(COP(=O)([O-])OCC(O)COC(=O)C(N)CCCC[NH3+])OC(=O)CCCCCCCCCCCCCCC (stereo unspecified) [LysPG(32:1)] |
| 287 Å² | CCCCCC/C=C/CCCCCCCC(=O)OCC(COP(=O)([O-])OCC(O)COC(=O)C(N)CCCC[NH3+])OC(=O)CCCCCCCCCCCCC (stereo unspecified) [LysPG(30:1)] |

same assay, conditions: [M+K]+; instrument: TW; calibrated with phosphatidylcholines (ESI+) and phosphatidylethanolamines (ESI-)

| collision cross section (N2) | Structure (SMILES) |
| --- | --- |
| 295.2 Å² | CCCCCCCC=CCC=CCC=CCC(=O)OC[C@H](CO[C@@H]1O[C@H](CO[C@H]2O[C@H](CO)[C@H](O)C(O)C2O)[C@H](O)C(O)C1O)OC(=O)CC=CCC=CCC=CCCCCCCC (stereo partly specified) [DGDG(16:3/18:3)] |
